Measurements as given in ChEMBL document CHEMBL1201862, “PubChem BioAssay data set” (2004).
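Cultured in 96-well plates, cells were exposed to test compound for 48 hours across five concentrations. At the GI50, growth is halved.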 Activity calls are given as the source filed them. Rule as the data show it: active = GI50 up to about 1.1 µM and inactive = higher.

Key:
Assay in all cases: NCI anticancer screen, dose series, 48 h
786-0 = system: 786-0
A498 = system: A498
A549 = system: A549
ACHN = system: ACHN
CAKI-1 = system: CAKI-1
CCRF-CEM = system: CCRF-CEM
COLO 205 = system: COLO 205
DLD-1 = system: DLD-1
DMS-114 = system: DMS-114
EKVX = system: EKVX
HCC 2998 = system: HCC 2998
HCT-116 = system: HCT-116
HCT-15 = system: HCT-15
HL-60 = system: HL-60
HOP-18 = system: HOP-18
HOP-62 = system: HOP-62
HOP-92 = system: HOP-92
HT-29 = system: HT-29
IGROV-1 = system: IGROV-1
K562 = system: K562
KM-20L2 = system: KM-20L2
KM12 = system: KM12
LOX IMVI = system: LOX IMVI
LXFL 529 = system: LXFL 529
M14 = system: M14
M19-MEL = system: M19-MEL
MOLT-4 = system: MOLT-4
Malme-3M = system: Malme-3M
NCI-H226 = system: NCI-H226
NCI-H23 = system: NCI-H23
NCI-H460 = system: NCI-H460
OVCAR-3 = system: OVCAR-3
OVCAR-4 = system: OVCAR-4
OVCAR-5 = system: OVCAR-5
OVCAR-8 = system: OVCAR-8
RPMI-8226 = system: RPMI-8226
RXF 393 = system: RXF 393
SF-268 = system: SF-268
SF-295 = system: SF-295
SF-539 = system: SF-539
SK-MEL-28 = system: SK-MEL-28
SK-MEL-5 = system: SK-MEL-5
SN12C = system: SN12C
SNB-19 = system: SNB-19
SNB-75 = system: SNB-75
SR = system: SR
SW-620 = system: SW-620
TK-10 = system: TK-10
U-251 = system: U-251
UACC-257 = system: UACC-257
UACC-62 = system: UACC-62
XF498 = system: XF498
DMS-273 = system: DMS-273
NCI-H522 = system: NCI-H522
SK-MEL-2 = system: SK-MEL-2
SNB-78 = system: SNB-78
UO-31 = system: UO-31
MCF7 = system: MCF7
NCI/ADR-RES = system: NCI/ADR-RES
SK-OV-3 = system: SK-OV-3

For `N#Cc1ccccc1NC(=O)C(=O)C1NC(=S)NC1=O` (centres undefined), the GI50 (786-0) was > 100 µM (inactive), the GI50 (A498) was > 100 µM (inactive) and the GI50 (A549) was > 100 µM (inactive). The GI50 (ACHN) was > 100 µM (inactive), the GI50 (CAKI-1) was > 100 µM (inactive) and the GI50 (CCRF-CEM) was > 100 µM (inactive). The GI50 (COLO 205) was > 100 µM (inactive), the GI50 (DLD-1) was > 100 µM (inactive) and the GI50 (DMS-114) was > 100 µM (inactive). The GI50 (EKVX) was > 100 µM (inactive), the GI50 (HCC 2998) was > 100 µM (inactive) and the GI50 (HCT-116) was > 100 µM (inactive). For the same compound, the GI50 (HCT-15) was over 100 µM, the GI50 (HL-60) was > 100 µM (inactive) and the GI50 (HOP-18) was 46.6 µM (inactive). The GI50 (HOP-62) was > 100 µM (inactive), the GI50 (HOP-92) was > 100 µM (inactive) and the GI50 (HT-29) was > 100 µM (inactive). For the same compound, the GI50 (IGROV-1) was > 100 µM (inactive), the GI50 (K562) was > 100 µM (inactive) and the GI50 (KM-20L2) was > 100 µM (inactive). For the same compound, the GI50 (KM12) was > 100 µM (inactive), the GI50 (LOX IMVI) was > 100 µM (inactive) and the GI50 (LXFL 529) was > 100 µM (inactive). For the same compound, the GI50 (M14) was > 100 µM (inactive), the GI50 (M19-MEL) was > 100 µM (inactive) and the GI50 (MOLT-4) was > 100 µM (inactive). The GI50 (Malme-3M) was > 100 µM (inactive), the GI50 (NCI-H226) was > 100 µM (inactive) and the GI50 (NCI-H23) was > 100 µM (inactive). For the same compound, the GI50 (NCI-H460) was > 100 µM (inactive), the GI50 (OVCAR-3) was > 100 µM (inactive) and the GI50 (OVCAR-4) was > 100 µM (inactive). For the same compound, the GI50 (OVCAR-5) was > 100 µM (inactive), the GI50 (OVCAR-8) was > 100 µM (inactive) and the GI50 (RPMI-8226) was > 100 µM (inactive). The GI50 (RXF 393) was > 100 µM (inactive), the GI50 (SF-268) was > 100 µM (inactive) and the GI50 (SF-295) was > 100 µM (inactive). The GI50 (SF-539) was > 100 µM (inactive), the GI50 (SK-MEL-28) was > 100 µM (inactive) and the GI50 (SK-MEL-5) was > 100 µM (inactive). The GI50 (SN12C) was > 100 µM (inactive), the GI50 (SNB-19) was > 100 µM (inactive) and the GI50 (SNB-75) was > 100 µM (inactive). For the same compound, the GI50 (SR) was > 100 µM (inactive), the GI50 (SW-620) was > 100 µM (inactive) and the GI50 (TK-10) was > 100 µM (inactive). The GI50 (U-251) was > 100 µM (inactive), the GI50 (UACC-257) was > 100 µM (inactive) and the GI50 (UACC-62) was > 100 µM (inactive). The GI50 (XF498) was > 100 µM (inactive).
With `COc1ccc(/C=C2\C(=O)N(C(=O)c3ccc(NC(C)=O)cc3)N=C2C)cc1OC` the GI50 (786-0) was > 100 µM (inactive), the GI50 (A549) was > 100 µM (inactive) and the GI50 (ACHN) was > 100 µM (inactive). The GI50 (CAKI-1) was > 100 µM (inactive), the GI50 (CCRF-CEM) was > 100 µM (inactive) and the GI50 (COLO 205) was > 100 µM (inactive). The GI50 (DLD-1) was > 100 µM (inactive), the GI50 (DMS-114) was > 100 µM (inactive) and the GI50 (DMS-273) was > 100 µM (inactive). The GI50 (EKVX) was > 100 µM (inactive), the GI50 (HCC 2998) was > 100 µM (inactive) and the GI50 (HCT-116) was > 100 µM (inactive). The GI50 (HCT-15) was over 100 µM, the GI50 (HL-60) was > 100 µM (inactive) and the GI50 (HOP-18) was 14.6 µM (inactive). The GI50 (HOP-62) was > 100 µM (inactive), the GI50 (HT-29) was > 100 µM (inactive) and the GI50 (K562) was > 100 µM (inactive). The GI50 (KM12) was > 100 µM (inactive), the GI50 (LOX IMVI) was > 100 µM (inactive) and the GI50 (M14) was > 100 µM (inactive). For the same compound, the GI50 (M19-MEL) was > 100 µM (inactive), the GI50 (MOLT-4) was > 100 µM (inactive) and the GI50 (Malme-3M) was > 100 µM (inactive). The GI50 (NCI-H226) was > 100 µM (inactive), the GI50 (NCI-H23) was > 100 µM (inactive) and the GI50 (NCI-H460) was > 100 µM (inactive). The GI50 (NCI-H522) was > 100 µM (inactive), the GI50 (OVCAR-3) was > 100 µM (inactive) and the GI50 (OVCAR-4) was > 100 µM (inactive). The GI50 (OVCAR-5) was > 100 µM (inactive), the GI50 (OVCAR-8) was > 100 µM (inactive) and the GI50 (RPMI-8226) was > 100 µM (inactive). For the same compound, the GI50 (SF-268) was > 100 µM (inactive), the GI50 (SF-295) was > 100 µM (inactive) and the GI50 (SF-539) was > 100 µM (inactive). For the same compound, the GI50 (SK-MEL-28) was > 100 µM (inactive), the GI50 (SK-MEL-2) was > 100 µM (inactive) and the GI50 (SK-MEL-5) was > 100 µM (inactive). The GI50 (SN12C) was > 100 µM (inactive), the GI50 (SNB-19) was > 100 µM (inactive) and the GI50 (SNB-75) was > 100 µM (inactive). The GI50 (SNB-78) was > 100 µM (inactive), the GI50 (SR) was > 100 µM (inactive) and the GI50 (SW-620) was > 100 µM (inactive). The GI50 (TK-10) was > 100 µM (inactive), the GI50 (UACC-257) was > 100 µM (inactive) and the GI50 (UO-31) was > 100 µM (inactive). The GI50 (XF498) was > 100 µM (inactive).
With `COc1cc(C2(c3ncc[nH]3)SSSCC2O)ccc1O` (centres undefined) the GI50 (A498) was 79.3 µM (inactive), the GI50 (A549) was > 57.4 µM (inactive) and the GI50 (CAKI-1) was 86.1 µM (inactive). For the same compound, the GI50 (CCRF-CEM) was 11.9 µM (inactive), the GI50 (COLO 205) was 25.6 µM (inactive) and the GI50 (DLD-1) was 58.5 µM (inactive). The GI50 (DMS-114) was 18.2 µM (inactive), the GI50 (DMS-273) was 30.1 µM (inactive) and the GI50 (EKVX) was 94 µM (inactive). For the same compound, the GI50 (HCC 2998) was 27.9 µM (inactive), the GI50 (HCT-116) was 32.6 µM (inactive) and the GI50 (HCT-15) was 33.1 µM. The GI50 (HL-60) was 29.6 µM (inactive), the GI50 (HOP-18) was > 66.4 µM (inactive) and the GI50 (HOP-62) was > 66.4 µM (inactive). The GI50 (HOP-92) was 6.25 µM (inactive), the GI50 (HT-29) was 38 µM (inactive) and the GI50 (IGROV-1) was 47.2 µM (inactive). For the same compound, the GI50 (K562) was 23.4 µM (inactive), the GI50 (KM-20L2) was > 92.5 µM (inactive) and the GI50 (KM12) was > 100 µM (inactive). For the same compound, the GI50 (LOX IMVI) was 19.1 µM (inactive), the GI50 (M19-MEL) was 12.2 µM (inactive) and the GI50 (MCF7) was 39.6 µM (inactive). The GI50 (MOLT-4) was 16.5 µM (inactive), the GI50 (NCI-H226) was 66.4 µM (inactive) and the GI50 (NCI-H23) was 60.7 µM (inactive). For the same compound, the GI50 (NCI-H460) was > 46.2 µM (inactive), the GI50 (NCI-H522) was 29.4 µM (inactive) and the GI50 (NCI/ADR-RES) was > 40.6 µM (inactive). The GI50 (OVCAR-3) was 32.2 µM (inactive), the GI50 (OVCAR-4) was 22.2 µM (inactive) and the GI50 (OVCAR-5) was > 100 µM (inactive). For the same compound, the GI50 (OVCAR-8) was 36.9 µM (inactive), the GI50 (RPMI-8226) was 22.6 µM (inactive) and the GI50 (RXF 393) was 30.1 µM (inactive). For the same compound, the GI50 (SF-268) was 15.8 µM (inactive), the GI50 (SF-295) was 39.1 µM (inactive) and the GI50 (SF-539) was > 59 µM (inactive). For the same compound, the GI50 (SK-MEL-28) was > 100 µM (inactive), the GI50 (SK-MEL-2) was > 100 µM (inactive) and the GI50 (SK-MEL-5) was 11.7 µM (inactive). The GI50 (SK-OV-3) was 66.4 µM (inactive), the GI50 (SN12C) was 47.8 µM (inactive) and the GI50 (SNB-19) was > 87.7 µM (inactive). The GI50 (SNB-75) was > 100 µM (inactive), the GI50 (SNB-78) was 34.2 µM (inactive) and the GI50 (SW-620) was 33 µM (inactive). For the same compound, the GI50 (U-251) was > 56.2 µM (inactive), the GI50 (UACC-257) was 18.4 µM (inactive) and the GI50 (UACC-62) was 22.6 µM (inactive). The GI50 (UO-31) was 65.9 µM (inactive) and the GI50 (XF498) was > 71 µM (inactive).
